# Earlier results in patent publication US20260248929A1, “MINOXIDIL-CROSSLINKED INJECTABLE HYDROGELS FOR LOCAL AND SUSTAINED INTRADERMAL DELIVER Y” (THE TRUSTEES OF THE UNIVERSITY OF PENNSYLVANIA, priority 2023, published 2026).
# Settings: topical application to skin
smiles,measurement,value
Nc1cc(N2CCCCC2)nc(N)[n+]1[O-] [minoxidil],minoxidil absorbed from a topical application,1%
